Test results reported in patent US5879683A, “Antibacterial agent containing tea extract or active fraction thereof and β-lactam antibiotic” (priority 1994, dated 1999).
Values joined by “and” are separate entries in the source; they are usually repeats but may differ in a detail not shown here. Equal values may be shown once. “Also recorded” adds a separate entry of the source.

Tests used:
Type in all cases: cell-based, Staphylococcus aureus
S. aureus USA#18 = assay: Activity II bioassay (anti-PBP2' action), agar well diffusion with methicillin 10 μg/ml; details: for activity II: pure compound at 1 mg/ml
Description: (§1) Activities I (inhibitory/killing actions against bacteria), II (anti-PBP2' action) and III (action against β-lactamase) were quantitated by bioassay, using large plates (14 cm diameter circular, or 25×25 cm square) containing IsoSensitest agar (Unipath CM 471) to a depth of about 4 mm. surface-seeded with S. aureus. Assay strains and additions to agar varied according to the activity being assayed (Table 4).
(§2) 6 mm wells were cut into the agar and filled with appropriate dilutions (in duplicate) of solutions of the material to be assayed. Following overnight incubation, diameters of inhibition zones were measured, and plots made of (log concentration) vs zone diameter. MNIC was calculated by extrapolating the regression line to zone diameter=6 mm; it was expressed ether as a concentration (μg/ml) or an activity (reciprocal of concentration in mg/ml).

S. aureus Oxford = assay: Activity I bioassay (inhibitory/killing action), agar well diffusion; details: pure compound at 1 mg/ml
Description: as §1, §2

MSSA = assay: MIC of benzylpenicillin in presence and absence of tea extract, MSSA (activity III)
Protocol: (§3) Strains were grown overnight at 37° C. in IsoSensitest™ broth (ISB, Unipath CM 473), and 1 μl amounts (c. 10^6 colony forming units (cfu) were inoculated on to six series of plates of IsoSensitest™ agar containing doubling dilutions of methicillin (1024- 1 μg/ml) alone and in the presence of tea extract in various sub-inhibitory concentrations, viz final dilutions of 1/40, 1/70, 1/100, 1/200 and 1/300.
(§4) Plates were incubated at 30° for 48 h. The minimum inhibitory concentration (MIC) of antibiotic was calculated for each sample, as a measure of activity II.
The 40 strains tested in Examples 1 and 2 above, together with 9 strains of methicillin-sensitive Staph. aureus (MSSA) were tested for their resistance to benzylpenicillin in the presence or absence of tea extract, with a view to measuring activity III. The procedures used were those described in Example 1, except that benzylpenicillin replaced methicillin. Both MSSA and MRSA have natural resistance to benzylpenicillin through the production of β-lactamase.

[1] = system: high level MRSA (20 strains of MRSA); assay: MIC of methicillin alone and in presence of tea extract, agar dilution, high level MRSA (activity II); details: strain no. is first number of line
Protocol: A 2% extract of crushed leaf Japanese "Sencha" tea was made in boiling water, and filtered through a Millipore filter. This extract contains about 14.7 mg/ml of tea.
Sodium methicillin (SmithKline Beecham) and vancomycin hydrochloride (Lilly Industries) were Laboratory Reference preparation.
IsoSensitest agar (Unipath CM 471) was supplemented with 20 g NaCl/L.
as §3, §4

low level MRSA = assay: MIC of methicillin alone and in presence of tea extract, low level MRSA (activity II); details: strain no. is first number of line
Protocol: as §3, §4
A further 20 strains of low level MRSA were tested for activity II according to the procedures described in Example 1.

MRSA = assay: Methicillin MIC in presence of sub-inhibitory vancomycin (control); details: sub-inhibitory vancomycin in place of tea
Protocol: A similar experiment was done using methicillin diluted in a series of sub-inhibitory concentrations of vancomycin, namely 0.5, 0.28, 0.2, 0.1 and 0.07 μg/l.
as §4

Structure (SMILES) | activity II, pure compounds (S. aureus USA#18) | activity I (S. aureus Oxford) | activity II (S. aureus USA#18) | further results
Oc1cc(O)c2c(c1)O[C@H](c1cc(O)c(O)c(O)c1)[C@H](O)C2 [EGC, Epigallocatechin] | no activity II | – | – | –
O=C(O[C@@H]1Cc2c(O)cc(O)cc2O[C@@H]1c1cc(O)c(O)c(O)c1)c1cc(O)c(O)c(O)c1 [EGCG, epigallocatechin gallate] | no activity II | – | – | –
Oc1cc(O)c2c(c1)O[C@H](c1ccc(O)c(O)c1)[C@H](O)C2 [Epicatechin, epicatechin] | – | no evidence of activity I or II | no evidence of activity I or II | –
O=c1c(O)c(-c2ccc(O)c(O)c2)oc2cc(O)cc(O)c12 [Quercitin, quercitin] | no activity II | – | – | –
CC1(C)S[C@@H]2[C@H](NC(=O)Cc3ccccc3)C(=O)N2[C@H]1C(=O)O [benzylpenicillin] | – | – | – | MIC (MSSA; Staphylococcus aureus, 48 h, read-out: MIC of benzylpenicillin, alone, MSSA, strain no. is first number of line): > 512 mg/L; MIC of benzylpenicillin, alone (MSSA; strain no. is first number of line): 512 mg/L and 256 mg/L
O=C(/C=C/c1ccc(O)c(O)c1)O[C@@H]1C[C@](O)(C(=O)O)C[C@@H](O)[C@H]1O [chlorogenic acid] | – | no evidence of activity I or II | no evidence of activity I or II | –
O=C(O)c1cc(O)c(O)c(O)c1 [gallic acid] | – | no evidence of activity I or II | no evidence of activity I or II | –
O=c1c(O)c(-c2ccc(O)cc2)oc2cc(O)cc(O)c12 [kaempferol] | no activity II | – | – | –
COc1cccc(OC)c1C(=O)N[C@@H]1C(=O)N2[C@@H]1SC(C)(C)[C@@H]2C(=O)O [methicillin] | – | – | – | MIC of methicillin, alone ([1]; no tea): 512 mg/L; MIC of methicillin, +T/300 ([1]; tea extract 1/300): 512 mg/L; MIC of methicillin, alone (low level MRSA): 32 mg/L and 64 mg/L
Cn1cnc2c1c(=O)[nH]c(=O)n2C [theobromine] | – | no evidence of activity I or II | no evidence of activity I or II | –
Cn1c(=O)c2[nH]cnc2n(C)c1=O [theophylline] | – | no evidence of activity I or II | no evidence of activity I or II | –
CN[C@H](CC(C)C)C(=O)N[C@H]1C(=O)N[C@@H](CC(N)=O)C(=O)N[C@H]2C(=O)N[C@H]3C(=O)N[C@H](C(=O)N[C@H](C(=O)O)c4cc(O)cc(O)c4-c4cc3ccc4O)[C@H](O)c3ccc(c(Cl)c3)Oc3cc2cc(c3O[C@@H]2O[C@H](CO)[C@@H](O)[C@H](O)[C@H]2O[C@H]2C[C@](C)(N)[C@H](O)[C@H](C)O2)Oc2ccc(cc2Cl)[C@H]1O [vancomycin] | – | – | – | effect of vancomycin on methicillin MIC / synergy (MRSA): no synergistic effect whatever; also recorded: no reduction in methicillin MIC
